Assay results reported in PubChem BioAssay (NCI).
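In this assay, cells in 96-well plates receive the compound at five concentrations for 48 hours. Endpoints are linearly interpolated between the surrounding concentrations. GI50: concentration for 50% inhibition of growth. Definition used: TGI = concentration required for complete inhibition of growth.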

How the values were obtained:
Assay in all cases: NCI-60 cell line screen, 48 h
[1] = tested on: SF-539 CNS
[2] = tested on: NCI-H23 lung
[3] = tested on: BT-549 breast
[4] = tested on: SK-OV-3 ovarian
[5] = tested on: PC-3 prostate
[6] = tested on: HCC-2998 colon
[7] = tested on: HOP-92 NSCLC
[8] = tested on: SR leukemia
[9] = tested on: SW-620 colon
[10] = tested on: LOX IMVI melanoma
[11] = tested on: CCRF-CEM leukemia
[12] = tested on: UACC-62 melanoma
[13] = tested on: DU-145 prostate
[14] = tested on: OVCAR-8 ovarian
[15] = tested on: NCI-H226 lung
[16] = tested on: MDA-MB-435
[17] = tested on: A498 renal
[18] = tested on: MDA-MB-231 breast
[19] = tested on: HCT-116 colon
[20] = tested on: NCI-H522 lung
[21] = tested on: OVCAR-4 ovarian
[22] = tested on: NCI-H460 lung
[23] = tested on: EKVX NSCLC
[24] = tested on: MDA-MB-468 breast
[25] = tested on: COLO 205 colon
[26] = tested on: OVCAR-5 ovarian
[27] = tested on: CAKI-1 renal
[28] = tested on: MCF7 breast
[29] = tested on: T-47D breast
[30] = tested on: SF-268 CNS
[31] = tested on: 786-0 renal
[32] = tested on: HS 578T breast
[33] = tested on: SNB-75 CNS
[34] = tested on: SN12C renal
[35] = tested on: ACHN renal
[36] = tested on: M14 melanoma
[37] = tested on: SK-MEL-2 melanoma
[38] = tested on: RXF 393 renal
[39] = tested on: UO-31 renal
[40] = tested on: HL-60(TB) leukemia
[41] = tested on: IGROV1 ovarian
[42] = tested on: OVCAR-3 ovarian
[43] = tested on: RPMI-8226 leukemia
[44] = tested on: HT29 colon
[45] = tested on: A549 NSCLC
[46] = tested on: SK-MEL-28 melanoma
[47] = tested on: MALME-3M melanoma
[48] = tested on: U251 CNS
[49] = tested on: KM12 colon
[50] = tested on: K-562 leukemia
[51] = tested on: HOP-62 NSCLC
[52] = tested on: SK-MEL-5 melanoma
[53] = tested on: SNB-19 CNS
[54] = tested on: TK-10 renal
[55] = tested on: SF-295 CNS
[56] = tested on: UACC-257 melanoma
[57] = tested on: MOLT-4 leukemia
[58] = tested on: HCT-15 colon

Question: `CN(C)c1ccnc(NCCCSC(c2ccccc2)(c2ccccc2)c2ccccc2)c1` was tested. Which GI50 [1] did it give?
Answer: 6.82 µM

Question: What about the TGI [1] of the same compound?
Answer: 21.9 µM

Question: And the GI50 [2]?
Answer: 12.9 µM

Question: And the TGI [2]?
Answer: 26.3 µM

Question: What about the GI50 [3] of the same compound?
Answer: 11.5 µM

Question: And the TGI [3]?
Answer: 25 µM

Question: What about the GI50 [4] of the same compound?
Answer: 13.5 µM

Question: And the TGI [4]?
Answer: 26.8 µM

Question: What about the GI50 [5] of the same compound?
Answer: 4.41 µM

Question: What about the TGI [5] of the same compound?
Answer: 16.3 µM

Question: What about the GI50 [6] of the same compound?
Answer: 2.55 µM

Question: What about the TGI [6] of the same compound?
Answer: 7.13 µM

Question: And the GI50 [7]?
Answer: 3.3 µM

Question: What about the TGI [7] of the same compound?
Answer: 15.8 µM

Question: And the GI50 [8]?
Answer: 2.76 µM

Question: What about the TGI [8] of the same compound?
Answer: 7.84 µM

Question: And the GI50 [9]?
Answer: 4.42 µM

Question: What about the TGI [9] of the same compound?
Answer: 16.1 µM

Question: And the GI50 [10]?
Answer: 2.96 µM

Question: And the TGI [10]?
Answer: 10.6 µM

Question: And the GI50 [11]?
Answer: 3.94 µM

Question: And the TGI [11]?
Answer: 17 µM

Question: And the GI50 [12]?
Answer: 7.5 µM

Question: And the TGI [12]?
Answer: 21.6 µM

Question: What about the GI50 [13] of the same compound?
Answer: 11 µM

Question: What about the TGI [13] of the same compound?
Answer: 23 µM

Question: And the GI50 [14]?
Answer: 10.3 µM

Question: What about the TGI [14] of the same compound?
Answer: 28 µM

Question: And the GI50 [15]?
Answer: 10.9 µM

Question: What about the TGI [15] of the same compound?
Answer: 28.1 µM

Question: And the GI50 [16]?
Answer: 8.6 µM

Question: What about the TGI [16] of the same compound?
Answer: 20.9 µM

Question: What about the GI50 [17] of the same compound?
Answer: 14.9 µM

Question: And the TGI [17]?
Answer: 29 µM

Question: What about the GI50 [18] of the same compound?
Answer: 5.71 µM

Question: And the TGI [18]?
Answer: 20.2 µM

Question: And the GI50 [19]?
Answer: 3.97 µM

Question: And the TGI [19]?
Answer: 17 µM

Question: What about the GI50 [20] of the same compound?
Answer: 12 µM

Question: And the TGI [20]?
Answer: 26.6 µM

Question: What about the GI50 [21] of the same compound?
Answer: 11.8 µM

Question: And the TGI [21]?
Answer: 29.8 µM

Question: And the GI50 [22]?
Answer: 4.85 µM

Question: And the TGI [22]?
Answer: 17.1 µM

Question: What about the GI50 [23] of the same compound?
Answer: 14.2 µM

Question: And the TGI [23]?
Answer: 29.6 µM

Question: And the GI50 [24]?
Answer: 2.01 µM

Question: What about the TGI [24] of the same compound?
Answer: 5.63 µM

Question: What about the GI50 [25] of the same compound?
Answer: 1.87 µM

Question: And the TGI [25]?
Answer: 3.44 µM

Question: What about the GI50 [26] of the same compound?
Answer: 11.9 µM

Question: What about the TGI [26] of the same compound?
Answer: 26 µM

Question: And the GI50 [27]?
Answer: 7.48 µM

Question: What about the TGI [27] of the same compound?
Answer: 21 µM

Question: What about the GI50 [28] of the same compound?
Answer: 3.96 µM

Question: What about the TGI [28] of the same compound?
Answer: 16.6 µM

Question: What about the GI50 [29] of the same compound?
Answer: 11.4 µM

Question: What about the TGI [29] of the same compound?
Answer: 29 µM

Question: And the GI50 [30]?
Answer: 14.5 µM

Question: What about the TGI [30] of the same compound?
Answer: 30.5 µM

Question: What about the GI50 [31] of the same compound?
Answer: 9.86 µM

Question: What about the TGI [31] of the same compound?
Answer: 25.8 µM

Question: What about the GI50 [32] of the same compound?
Answer: 11.3 µM

Question: What about the TGI [32] of the same compound?
Answer: 35.3 µM

Question: What about the GI50 [33] of the same compound?
Answer: 11.9 µM

Question: What about the TGI [33] of the same compound?
Answer: 24.3 µM

Question: And the GI50 [34]?
Answer: 11.1 µM

Question: And the TGI [34]?
Answer: 25.8 µM

Question: What about the GI50 [35] of the same compound?
Answer: 8.67 µM

Question: What about the TGI [35] of the same compound?
Answer: 24.8 µM

Question: And the GI50 [36]?
Answer: 3.81 µM

Question: What about the TGI [36] of the same compound?
Answer: 13.3 µM

Question: What about the GI50 [37] of the same compound?
Answer: 16.6 µM

Question: What about the TGI [37] of the same compound?
Answer: 30.7 µM

Question: What about the GI50 [38] of the same compound?
Answer: 2.58 µM

Question: And the TGI [38]?
Answer: 9.7 µM

Question: And the GI50 [39]?
Answer: 5.4 µM

Question: And the TGI [39]?
Answer: 21.1 µM

Question: What about the GI50 [40] of the same compound?
Answer: 3.06 µM

Question: And the TGI [40]?
Answer: 10.5 µM

Question: What about the GI50 [41] of the same compound?
Answer: 11.4 µM

Question: What about the TGI [41] of the same compound?
Answer: 27.9 µM

Question: And the GI50 [42]?
Answer: 7.26 µM

Question: And the TGI [42]?
Answer: 20.2 µM

Question: And the GI50 [43]?
Answer: 3.43 µM

Question: What about the TGI [43] of the same compound?
Answer: 12.3 µM

Question: What about the GI50 [44] of the same compound?
Answer: 3 µM

Question: What about the TGI [44] of the same compound?
Answer: 10.7 µM

Question: What about the GI50 [45] of the same compound?
Answer: 7.35 µM

Question: What about the TGI [45] of the same compound?
Answer: 21.6 µM

Question: What about the GI50 [46] of the same compound?
Answer: 1.75 µM

Question: What about the TGI [46] of the same compound?
Answer: 3.74 µM

Question: What about the GI50 [47] of the same compound?
Answer: 1.55 µM

Question: And the TGI [47]?
Answer: 3.19 µM

Question: And the GI50 [48]?
Answer: 7.78 µM

Question: What about the TGI [48] of the same compound?
Answer: 21.7 µM

Question: What about the GI50 [49] of the same compound?
Answer: 5.57 µM

Question: And the TGI [49]?
Answer: 17.8 µM

Question: And the GI50 [50]?
Answer: 2.88 µM

Question: What about the TGI [50] of the same compound?
Answer: 10.4 µM

Question: And the GI50 [51]?
Answer: 14.5 µM

Question: What about the TGI [51] of the same compound?
Answer: 29.2 µM

Question: What about the GI50 [52] of the same compound?
Answer: 3.93 µM

Question: And the TGI [52]?
Answer: 14.2 µM

Question: What about the GI50 [53] of the same compound?
Answer: 15.9 µM

Question: And the TGI [53]?
Answer: 31.5 µM

Question: And the GI50 [54]?
Answer: 12.4 µM

Question: And the TGI [54]?
Answer: 25.4 µM

Question: What about the GI50 [55] of the same compound?
Answer: 11.4 µM

Question: What about the TGI [55] of the same compound?
Answer: 26.2 µM

Question: What about the GI50 [56] of the same compound?
Answer: 3.07 µM

Question: And the TGI [56]?
Answer: 11.6 µM

Question: And the GI50 [57]?
Answer: 3.62 µM

Question: What about the TGI [57] of the same compound?
Answer: 15 µM

Question: And the GI50 [58]?
Answer: 5.19 µM

Question: What about the TGI [58] of the same compound?
Answer: 19.6 µM
